1 molecule from patent US20250019373A1, “ARYL OR HETEROARYL DERIVATIVE, AND PHARMACEUTICAL COMPOSITION COMPRISING SAME AS ACTIVE INGREDIENT FOR PREVENTION OR TREATMENT OF KINASE-RELATED DISEASES” (VORONOI INC., priority 2021, published 2025) can be followed below.

The subject of test [1] is HT-29 cells. Description: Cell necrosis inhibitory activity under necroptosis-inducing conditions (TNF-α, Z-VAD-FMK, LCL161) in HT-29 cells, Cell Titer-Glo. In kind it is cell-based. As to conditions: Homo sapiens, 100 ng/mL TNF-α + 25 μM Z-VAD-FMK + Smac mimetic LCL161, 24 hours, cell viability. Summed up: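 HT-29 cells seeded 24 h, then necroptosis induced with 100 ng/mL TNF-α, 25 μM Z-VAD-FMK and 10 μM LCL161 for 10 min before compound (11 points, 3-fold, top 0.1 or 1 μM; 0.05% DMSO). After 24 h, viability by CellTiter-Glo luminescence relative to untreated controls gave EC50 (nM).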
Background: ATP-based viability assays read luminescence as a measure of living cells.

Test [2] addresses T1, RIPK1 (Homo sapiens, UniProt Q13546).
T1 construct: purchased DiscoverX
T1 sequence (Q13546 1-671): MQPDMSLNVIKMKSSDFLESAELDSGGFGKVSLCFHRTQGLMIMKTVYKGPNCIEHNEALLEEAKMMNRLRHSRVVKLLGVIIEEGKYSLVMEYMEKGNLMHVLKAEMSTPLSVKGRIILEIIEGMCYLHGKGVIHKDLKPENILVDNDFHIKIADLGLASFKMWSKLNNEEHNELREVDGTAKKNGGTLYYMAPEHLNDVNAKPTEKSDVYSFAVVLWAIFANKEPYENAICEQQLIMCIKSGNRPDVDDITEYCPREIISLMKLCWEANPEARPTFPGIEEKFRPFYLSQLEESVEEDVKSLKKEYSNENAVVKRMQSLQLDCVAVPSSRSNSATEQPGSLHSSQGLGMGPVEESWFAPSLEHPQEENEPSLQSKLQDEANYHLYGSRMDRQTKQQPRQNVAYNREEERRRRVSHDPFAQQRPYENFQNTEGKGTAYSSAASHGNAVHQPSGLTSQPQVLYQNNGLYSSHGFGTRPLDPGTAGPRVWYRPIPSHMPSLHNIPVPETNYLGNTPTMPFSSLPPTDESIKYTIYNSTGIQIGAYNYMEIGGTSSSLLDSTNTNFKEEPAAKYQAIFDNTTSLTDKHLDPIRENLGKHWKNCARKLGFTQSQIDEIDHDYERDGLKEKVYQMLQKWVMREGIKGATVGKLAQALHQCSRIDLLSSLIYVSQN
Description: RIPK1 inhibitory activity, DiscoverX scanMAX kinase panel (% control). As to conditions: drug concentration 1 μM in DMSO, <35% counted as active, read-out: control percentage (% control) RIPK1. It counts as binding. The procedure: To evaluate the RIPK1 inhibitory activity of a compound according to the present invention, the following experiment was performed. Specifically, for Examples 3 and 30 selected from the compounds of Examples of the present invention, enzyme (kinase) selectivity was measured by DiscoverX, and the experiment was conducted using a panel for scanMAX™ kinase analysis. Here, the enzyme was treated with a drug having a concentration of 1 μM in DMSO, and a control percentage (% control) was determined in the same manner as Formula 1 below.
Here, the positive control refers to a compound showing a control percentage of 0%, and the negative control is DMSO showing a control percentage of 100%. In addition, in terms of the enzyme selectivity of the present invention, when the control percentage with respect to an enzyme is <35% (i.e., less than 35%), it was determined that the compound has activity against the corresponding enzyme.

pEC50: −log10 of the molar value.

Broadly, the pEC50 is the negative decadic logarithm of the EC50, by convention in mol/L. For the molecule `COc1ncc(-c2ccc3nc(NC(C)=O)cn3n2)cc1NC(=O)N1OCC[C@H]1c1ccccc1` [Example 3, (S)-N-(5-(2-acetamidoimidazo[1,2-b]pyridazin-6-yl)-2-methoxypyridin-3-yl)-3-phenylisoxazolidine-2-carboxamide], in test [1], the pEC50 is 9.22. The remaining binding at 1 µM in test [2] is 1%.
